Patent US11787825B2 (priority 2021, dated 2023)
Values after ≈ are worked out from the molar mass of the structure shown. Marks after values point to notes of the source that are not given here.

Experiments:
[1] = 1.0% DMSO, 24-hour incubation at ambient temperature, maximum theoretical compound concentration 100 μM; for pH 2 solubility: 0.1N HCL; for pH 7 solubility: 1×PBS buffer (pH 7.4)
[2] = Beagle, in vivo, po; for Dog F % (suspension): pH 2
[3] = physchem; details: 25 °C, thermodynamic from solid
[4] = fasted state simulated intestinal fluid (FaSSIF), fassif
[5] = fed state simulated intestinal fluid (FeSSIF), fessif

Row | Compound | pH 2 solubility [1] | pH 7 solubility [1] | Dog F % (suspension) [2] | solubility [3, 4] | solubility [3, 5] | Dog F % (solution) [2] | solubility ([3]; fassif) | solubility ([3]; fessif)
1 | CC(C)(CNC(=O)OCOP(=O)(O)O)CC(=O)N(c1nn(CC(F)(F)F)c2c(-c3ccc(C#CC(C)(C)S(C)(=O)=O)nc3[C@H](Cc3cc(F)cc(F)c3)NC(=O)Cn3nc(C(F)(F)F)c4c3C(F)(F)[C@@H]3C[C@H]43)ccc(Cl)c12)S(C)(=O)=O [Compound 41, (phosphonooxy)methyl (4-(N-(4-chloro-7-(2-((S)-1-(2-((3bS,4aR)-5,5-difluoro-3-(trifluoromethyl)-3b,4,4a,5-tetrahydro-111-cyclopropa[3,4]cyclopenta[1,2-c]pyrazol-1-yl)acetamido)-2-(3,5-difluorophenyl)ethyl)-6-(3-methyl-3-(methylsulfonyl)but-1-yn-1-yl)pyridin-3-yl)-1-(2,2,2-trifluoroethyl)-1H-indazol-3-yl)methylsulfonamido)-2,2-dimethyl-4-oxobutyl)carbamate] | 1 μM | 100 μM | 4% | 1140 µg/mL (≈ 927 µM) | 440 µg/mL (≈ 356 µM) |  |  | 
2 | CN(CCCC(=O)N(c1nn(CC(F)(F)F)c2c(-c3ccc(C#CC(C)(C)S(C)(=O)=O)nc3[C@H](Cc3cc(F)cc(F)c3)NC(=O)Cn3nc(C(F)(F)F)c4c3C(F)(F)[C@@H]3C[C@H]43)ccc(Cl)c12)S(C)(=O)=O)C(=O)OCOP(=O)(O)O [Compound 32, (phosphonooxy)methyl (4-(N-(4-chloro-7-(2-((S)-1-(2-((3bS,4aR)-5,5-difluoro-3-(trifluoromethyl)-3b,4,4a,5-tetrahydro-111-cyclopropa[3,4]cyclopenta [1,2-c]pyrazol-1-yl)acetamido)-2-(3,5-difluorophenyl)ethyl)-6-(3-methyl-3-(methylsulfonyl)but-1-yn-1-yl)pyridin-3-yl)-1-(2,2,2-trifluoroethyl)-1H-indazol-3-yl)methylsulfonamido)-4-oxobutyl)(methyl)carbamate] | 1 μM | 100 μM |  | 194 µg/mL (≈ 159 µM) | 210 µg/mL (≈ 172 µM) | 31^b % |  | 
3 | CC(C)(C#Cc1ccc(-c2ccc(Cl)c3c(N(C(=O)CCC(=O)OCOP(=O)(O)O)S(C)(=O)=O)nn(CC(F)(F)F)c23)c([C@H](Cc2cc(F)cc(F)c2)NC(=O)Cn2nc(C(F)(F)F)c3c2C(F)(F)[C@@H]2C[C@H]32)n1)S(C)(=O)=O [Compound 28, (phosphonooxy)methyl 4-(N-(4-chloro-7-(2-((S)-1-(2-((3bS,4aR)-5,5-difluoro-3-(trifluoromethyl)-3b,4,4a,5-tetrahydro-1H-cyclopropa[3,4]cyclopenta[1,2-c]pyrazol-1-yl)acetamido)-2-(3,5-difluorophenyl)ethyl)-6-(3-methyl-3-(methylsulfonyl)but-1-yn-1-yl)pyridin-3-yl)-1-(2,2,2-trifluoroethyl)-1H-indazol-3-yl)methylsulfonamido)-4-oxobutanoate] | 1 μM | 86 μM |  | 555 µg/mL (≈ 471 µM) | 319 µg/mL (≈ 271 µM) | 51^b % |  | 
4 | Cc1cc(C)c(C(C)(C)CC(=O)N(c2nn(CC(F)(F)F)c3c(-c4ccc(C#CC(C)(C)S(C)(=O)=O)nc4[C@H](Cc4cc(F)cc(F)c4)NC(=O)Cn4nc(C(F)(F)F)c5c4C(F)(F)[C@@H]4C[C@H]54)ccc(Cl)c23)S(C)(=O)=O)c(OP(=O)(O)O)c1 [Compound 48, 2-(4-(N-(4-chloro-7-(2-((S)-1-(2-03bS,4aR)-5,5-difluoro (trifluoromethyl)-3b,4,4a,5-tetrahydro-1H-cyclopropa[3,4]cyclopenta[1,2-c]pyrazolyl)acetamido)-2-(3,5-difluorophenyl)ethyl)-6-(3-methyl-3-(methylsulfonyl)but-1-ynyl)pyridin-3-yl)-1-(2,2,2-trifluoroethyl)-1H-indazol-3-yl)methylsulfonamido)-2-methyl oxobutan-2-yl)-3,5-dimethylphenyl dihydrogen phosphate] |  |  | 16% |  |  | 60^b % | 777 µg/mL | 948 µg/mL
5 | Cc1cc(CP(=O)(O)O)c(C(C)(C)CC(=O)N(c2nn(CC(F)(F)F)c3c(-c4ccc(C#CC(C)(C)S(C)(=O)=O)nc4[C@H](Cc4cc(F)cc(F)c4)NC(=O)Cn4nc(C(F)(F)F)c5c4C(F)(F)[C@@H]4C[C@H]54)ccc(Cl)c23)S(C)(=O)=O)c(OP(=O)(O)O)c1 [Compound 55, (2-(4-(N-(4-chloro-7-(2-((S)-1-(2-((3bS,4aR)-5,5-difluoro-3-(trifluoromethyl)-3b,4,4a,5-tetrahydro-1H-cyclopropa[3,4]cyclopenta[1,2-c]pyrazol-1-yl)acetamido)-2-(3,5-difluorophenyl)ethyl)-6-(3-methyl-3-(methylsulfonyl)but-1-yn-1-yl)pyridin-3-yl)-1-(2,2,2-trifluoroethyl)-1H-indazol-3-yl)methylsulfonamido)-2-methyl-4-oxobutan-2-yl)-5-methyl-3-(phosphonooxy)benzyl)phosphonic acid] |  |  |  |  |  | 33 ^c % | > 10000 µg/mL | 
6 | CC(C)(CC(=O)N(c1nn(CC(F)(F)F)c2c(-c3ccc(C#CC(C)(C)S(C)(=O)=O)nc3[C@H](Cc3cc(F)cc(F)c3)NC(=O)Cn3nc(C(F)(F)F)c4c3C(F)(F)[C@@H]3C[C@H]43)ccc(Cl)c12)S(C)(=O)=O)CN(CC(=O)O)C(=O)OCOP(=O)(O)O [Compound 42, N-(4-(N-(4-chloro-7-(2-((S)-1-(2-((3bS,4aR)-5,5-difluoro (trifluoromethyl)-3b,4,4a,5-tetrahydro-1H-cyclopropa[3,4]cyclopenta[1,2-c]pyrazolyl)acetamido)-2-(3,5-difluorophenyl)ethyl)-6-(3-methyl-3-(methylsulfonyl)but-1-ynyl)pyridin-3-yl)-1-(2,2,2-trifluoroethyl)-1H-indazol-3-yl)methylsulfonamido)-2,2-dimethyl-4-oxobutyl)-N-(((phosphonooxy)methoxy)carbonyl)glycine] | 1 μM | 100 μM | 9% |  |  |  |  | 
7 | Cc1cc(CC(=O)O)cc(OP(=O)(O)O)c1C(C)(C)CC(=O)N(c1nn(CC(F)(F)F)c2c(-c3ccc(C#CC(C)(C)S(C)(=O)=O)nc3[C@H](Cc3cc(F)cc(F)c3)NC(=O)Cn3nc(C(F)(F)F)c4c3C(F)(F)[C@@H]3C[C@H]43)ccc(Cl)c12)S(C)(=O)=O [Compound 47, 2-(4-(4-(N-(4-chloro-7-(2-((S)-1-(2-((3bS,4aR)-5,5-difluoro (trifluoromethyl)-3b,4,4a,5-tetrahydro-1H-cyclopropa[3,4]cyclopenta[1,2-c]pyrazolyl)acetamido)-2-(3,5-difluorophenyl)ethyl)-6-(3-methyl-3-(methylsulfonyl)but-1-ynyl)pyridin-3-yl)-1-(2,2,2-trifluoroethyl)-1H-indazol-3-yl)methylsulfonamido)-2-methyloxobutan-2-yl)-3-methyl-5-(phosphonooxy)phenyl)acetic acid] |  |  | 7% |  |  |  | 1420 µg/mL (≈ 1100 µM) | 226 µg/mL (≈ 174 µM)
